The target of this experiment is Metallo-beta-lactamase type 2 (Klebsiella pneumoniae, UniProt C7C422). Description: Inhibition of his6-tagged NDM-1 (unknown origin) expressed in Escherichia coli BL21-DE3 incubated for 16 hrs.
Sequence of Metallo-beta-lactamase type 2 (C7C422 whole entry): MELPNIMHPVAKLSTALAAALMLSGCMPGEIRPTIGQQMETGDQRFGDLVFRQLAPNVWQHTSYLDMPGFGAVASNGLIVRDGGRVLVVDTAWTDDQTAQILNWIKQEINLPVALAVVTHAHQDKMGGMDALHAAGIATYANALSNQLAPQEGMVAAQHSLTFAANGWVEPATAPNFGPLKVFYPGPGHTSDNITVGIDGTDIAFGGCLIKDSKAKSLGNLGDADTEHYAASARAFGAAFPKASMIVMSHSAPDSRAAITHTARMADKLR

On to `SC[C@H]1SC[C@@H]2Nc3ccccc3N21`, for which it took 770 nM to reach half-maximal inhibition (IC50).

The values above are taken from BindingDB's records for PubMed 38373290 (University of the Republic (UdelaR)).
